Measurements taken from patent US11572347B2 (priority 2017, dated 2023).
Where two headings read alike, the source gives them in different places.

How the values were obtained:
in vivo = details: rat
Experimental: All the animal experiments were performed according to the protocols approved by the Animal Use and Care Committee of University of California-Davis. Male Sprague-Dawley rats (n=4, 8 week old, 250-300 g) were used in the pharmacokinetic study of sEH/PDE4 dual inhibitors. […] Inhibitor was dissolved in 100% polyethylene glycol 300 to form a clear solution. […] Each blood sample was immediately transferred to a tube containing […] of water and mixed by Vortex for 1 min, all samples were stored at −80° C. until analysis.

PDE4 = system: PDE4
Experimental: HEK293 cell culture and transfection: HEK293 cells were cultured in DMEM (Gibco life technologies) containing 10% FBS, 100 units/ml penicillin-streptomycin, and 2 mM L-glutamine. Cell transfections were performed with the PIE Transfection reagent (Qiagen) according to manufacturer's instructions.
Forster Resonance Energy Transfer (FRET):Measurements to track PKA activity. […] Images were acquired using a Zeiss AXIO inverted fluorescence microscope (Carl Zeiss micrscopy, LLC, Thomwood, N.Y.) with a 40× oil-emersion objective lens and a charge-coupled device camera controlled by Metafluor software (Molecular Devices, Sunnyvale, Calif.). […] Images were subjected to background subtraction, and were acquired every 30 seconds with exposure time of 200 ms. The donor/acceptor FRET ratio was calculated and normalized to the ratio value of baseline.
Statistics: Statistical analysis was performed using GraphPad Prism 6 software (La Jolla, Calif.). Results are shown as mean±SEM and were analyzed by one way ANOVA with post hoc Bonferroni's multiple compression test.

[1] = system: inflammatory pain (rat TWL-LPS model); details: for TWL threshold time course (analgesic effect): over 4 h
Experimental: Control animals received a 50 μl saline intraplantar sham injection in the right back paw.
Student t-test was performed in Microsoft Excel with a significance of P<0.05. Results are shown as mean±SD.

[2] = over the following days post treatment
[3] = male, Sprague-Dawley, in vivo, 0.3 mg/kg
[4] = rat TWL-LPS model, 1 mg/kg oral, 0.5 h
[5] = rat TWL-LPS model, 3 mg/kg oral, 0.5 h
[6] = male, Sprague-Dawley, po, 3 mg/kg
[7] = male, Sprague-Dawley, po, 30 mg/kg
[8] = male, Sprague-Dawley, po, 100 mg/kg

COc1ccc(CNC(=O)c2ccc(OC)c(OC3CCCC3)c2)c(C(F)(F)F)c1 [Compound 1, 3-(cyclopentyloxy)-4-methoxy-N-(4-methoxy-2-(trifluoromethyl)benzyl)benzamide]
concentration at 0 h (in vivo; [3]): 0 nM
concentration at 1 h (in vivo; [3]): 0 nM
concentration at 2 h (in vivo; [3]): 0 nM
concentration at 4 h (in vivo; [3]): 0 nM
concentration at 8 h (in vivo; [3]): 0 nM
concentration at 12 h (in vivo; [3]): 0 nM
concentration at 24 h (in vivo; [3]): 0 nM
concentration at 48 h (in vivo; [3]): 0 nM
Percentage change (PDE4): 240%

COc1ccc(CNC(=O)c2cccc(OC3CCCC3)c2)c(C(F)(F)F)c1 [Compound 19, 3-(Cyclopentyloxy)-N-(4-methoxy-2-(trifluoromethyl)benzyl)benzamide]
concentration at 0 h (in vivo; [3]): 0 nM
concentration at 0.5 h (in vivo; [3]): 4 ± 1.3 nM
concentration at 1 h (in vivo; [3]): 2 ± 0.3 nM
concentration at 2 h (in vivo; [3]): 2 ± 0.3 nM
concentration at 4 h (in vivo; [3]): 2 ± 0.2 nM
concentration at 8 h (in vivo; [3]): 1 ± 0.1 nM
concentration at 12 h (in vivo; [3]): 1 ± 0.2 nM
concentration at 24 h (in vivo; [3]): 0.3 ± 0.01 nM
concentration at 48 h (in vivo; [3]): 0 nM
plasma concentration reached (in words) (in vivo; cassette 0.3 mg/kg PO): one digit nM
Percentage change (PDE4): 147%

COc1ccc(CNC(=O)C2CCNCC2)c(C(F)(F)F)c1 [Compound 22, N-(4-Methoxy-2-(trifluoromethyl)benzyl)piperidine-4-carboxamide]
% cAMP increase rel. to Rolipram @ 1 μM (PDE4): higher cAMP increase than Rolipram
Percentage change (PDE4): 138%

CCC(=O)N1CCC(C(=O)NCc2ccc(OC)cc2C(F)(F)F)CC1 [Compound 23/RBH61, N-(4-methoxy-2-(trifluoromethyl)benzyl)-1-propionylpiperidine-4-carboxamide]
TWL threshold in naïve animals (analgesic effect) ([1]; naïve rats, no LPS): no analgesic effect
TWL threshold at 0.5 h (pain relief vs LPS control) [1, 4]: significant pain relief
TWL threshold time course (analgesic effect) ([1]; rat TWL-LPS model, 1 mg/kg oral): pain relief
TWL threshold at 0.5 h (pain relief vs LPS control) [1, 5]: significant pain relief
TWL threshold time course (analgesic effect) ([1]; rat TWL-LPS model, 3 mg/kg oral): pain relief
analgesic effect compared to single target treatments and their combination ([1]; rat TWL-LPS model, 3 mg/kg, 0.5 h): significantly higher
concentration at 0 h (in vivo; [3]): 0 nM
concentration at 1 h (in vivo; [3]): 40 ± 12 nM
concentration at 2 h (in vivo; [3]): 25 ± 6 nM
concentration at 8 h (in vivo; [3]): 0 nM
concentration at 12 h (in vivo; [3]): 0 nM
concentration at 24 h (in vivo; [3]): 0 nM
concentration at 48 h (in vivo; [3]): 0 nM
concentration at 0 h (in vivo; [6]): 0 nM
concentration at 1 h (in vivo; [6]): 400 ± 15 nM
concentration at 2 h (in vivo; [6]): 120 ± 7 nM
concentration at 4 h (in vivo; [6]): 0 nM
concentration at 8 h (in vivo; [6]): 0 nM
concentration at 12 h (in vivo; [6]): 0 nM
concentration at 24 h (in vivo; [6]): 0 nM
concentration at 48 h (in vivo; [6]): 0 nM
time until compound is cleared from the blood (in vivo; [6]): 4 h
concentration at 0 h (in vivo; [7]): 0 nM
concentration at 1 h (in vivo; [7]): 805 nM
concentration at 2 h (in vivo; [7]): 527 nM
concentration at 8 h (in vivo; [7]): 29 nM
concentration at 12 h (in vivo; [7]): 0 nM
concentration at 24 h (in vivo; [7]): 0 nM
concentration at 48 h (in vivo; [7]): 0 nM
concentration at 0 h (in vivo; [8]): 0 nM
concentration at 1 h (in vivo; [8]): 1380 nM
concentration at 2 h (in vivo; [8]): 923 nM
concentration at 4 h (in vivo; [8]): 477 nM
concentration at 8 h (in vivo; [8]): 254 nM
concentration at 12 h (in vivo; [8]): 0 nM
concentration at 24 h (in vivo; [8]): 0 nM
concentration at 48 h (in vivo; [8]): 0 nM
bioavailability among the cassette compounds (in vivo; cassette 0.3 mg/kg PO): best bioavailability
time after which compound is cleared from plasma (in vivo; cassette 0.3 mg/kg PO): 4 h
urine excretion [2]: increase in urine excretion

CCCC(=O)N1CCC(C(=O)NCc2ccc(OC)cc2C(F)(F)F)CC1 [Compound 24, 1-Butyryl-N-(4-methoxy-2-(trifluoromethyl)benzyl)piperidine-4-carboxamide]
Percentage change (PDE4): 110%

CCN1CCC(C(=O)NCc2ccc(OC)cc2C(F)(F)F)CC1 [Compound 26, 1-ethyl-N-(4-methoxy-2-(trifluoromethyl)benzyl)piperidine-4-carboxamide]
Percentage change (PDE4): 62%

COc1ccc(CNC(=O)C2CCN(C(=O)C3CC3)CC2)c(C(F)(F)F)c1 [Compound 28, 1-(cyclopropanecarbonyl)-N-(4-methoxy-2-(trifluoromethyl)benzyl)piperidine-4-carboxamide]
% cAMP increase rel. to Rolipram @ 1 μM (PDE4): 230 ± 15%

TPPU [reference compound]
TWL threshold at 0.5 h (pain relief vs LPS control) [1, 4]: do not result in an equal analgesic effect
TWL threshold at 0.5 h (pain relief vs LPS control) [1, 5]: significant pain relief
% cAMP increase rel. to Rolipram @ 1 μM (PDE4): 40 ± 10%
Percentage change (PDE4): 37%
mean FRET ratio change (PDE4): 1.015
